Entries after “also recorded” stand apart in the source; their conditions may differ. Where two headings read alike, the source gives them in different places.
Columns and labels:
infarcts = conditions: cited from earlier work
[1] = Tissue distribution of Tc-99m agents in rats with isoproterenol-induced heart damage (Table I); conditions: 60 minutes after i.v. (tail vein) injection
Description: (§1) The dosage used was proportional to the weight of the rats (30 mg isoproterenol hydrochloride/kilogram of body weight).
(§2) After five hours, the animals were injected with 50 μl (~1 mCi) of the above radioactive solution via the tail vein. The animals were killed by cervical dislocation 60 minutes after the injection of the technetium complex. The heart was excised, cut open, and blotted. Heart tissue was then washed with isotonic saline solution and weighed. Other organs were also dissected and weighed. The amount of radiation in each tissue was quantitatively determined using a NaI scintillation counter. Fifty μl standards of the complex solution were also counted. […] The levels are expressed as a percent of the original dose of radioactivity which was taken up by the tissue or fluid (blood).

damaged cardiac tissue = experiment: Ratio of activity in damaged vs normal cardiac tissue of rats (Table II); type: in vivo, rat; conditions: isoproterenol-damaged rats vs control rats; 60 minutes after injection
Description: The heart was excised, cut open, and blotted. […] Other organs were also dissected and weighed.
Control animals (animals not injected with isoproterenol) were also injected with several ^99m Tc complexes.

[2] = in vivo; cited from earlier work
[3] = rat, in vivo, iv, 1 h
Description: as §1, §2

^99m Tc-glucoheptonate
accumulation in infarcts (infarcts; in vivo): shown to accumulate in infarcts

O.O.O=P([O-])([O-])CP(=O)([O-])[O-].[99Tc+4] [Methylenediphosphonate, ^99m Tc-methylenediphosphonate]
% Dose/g of Tissue (Fluid), Blood ([1]; blood): 0.051 % Dose/g
% Dose/g of Tissue (Fluid), Liver ([1]; liver): 0.060 % Dose/g
% Dose/g of Tissue (Fluid), Muscle ([1]; muscle): 0.018 % Dose/g
accumulation in infarcts (infarcts; in vivo): shown to accumulate in infarcts
% Dose/gram in Damaged Heart/% Dose/gram in Normal Heart (damaged cardiac tissue): 20.5

^99m Tc-hydroxyethylenediphosphonate
accumulation in infarcts (infarcts; in vivo): shown to accumulate in infarcts

O=P([O-])([O-])OP(=O)([O-])[O-].[99Tc] [Pyrophosphate, ^99m Tc-pyrophosphate]
blood clearance [2]: relatively slow
% Dose/g of Tissue (Fluid), Blood [3]: 0.182 % Dose/g
% Dose/g of Tissue (Fluid), Liver [3]: 0.131 % Dose/g
% Dose/g of Tissue (Fluid), Muscle [3]: 0.026 % Dose/g
infarct to bone ratio (infarcts; compared to other ^99m Tc bone seeking agents): relatively high
detection of recent infarcts (infarcts; in vivo): inability to detect recent infarcts
interference from skeletal structures in infarct imaging (infarcts; ribs and sternum / overlying skeletal structures): less interference from the ribs and sternum; also recorded: interference due to uptake in overlying skeletal structures
% Dose/gram in Damaged Heart/% Dose/gram in Normal Heart (damaged cardiac tissue): 21.4

— patent US4582698A, “Process for imaging cardiac infarcts” (The Dow Chemical Company, priority 1983, dated 1986)
